Reference: patent US4579822A (priority 1983, dated 1986)
Where two headings read alike, the source gives them in different places.

Assays:
DHAK (I) [1] = biological target: T1, DHAK (I) (Schizosaccharomyces pombe, UniProt O13902); assay: Substrate specificity of DHAK (I); format: biochemical, Schizosaccharomyces pombe IFO 0354
T1 construct: DHAK (I) and DHAK (II) obtained from Schizosaccharomyces pombe IFO 0354; made in house; host or cells: Schizosaccharomyces pombe IFO 0354 (natural producer, not recombinant); cell extract, DEAE-Sepharose fraction at 0.12 M KCl, then Blue-Sepharose
T1 sequence (O13902 1-580): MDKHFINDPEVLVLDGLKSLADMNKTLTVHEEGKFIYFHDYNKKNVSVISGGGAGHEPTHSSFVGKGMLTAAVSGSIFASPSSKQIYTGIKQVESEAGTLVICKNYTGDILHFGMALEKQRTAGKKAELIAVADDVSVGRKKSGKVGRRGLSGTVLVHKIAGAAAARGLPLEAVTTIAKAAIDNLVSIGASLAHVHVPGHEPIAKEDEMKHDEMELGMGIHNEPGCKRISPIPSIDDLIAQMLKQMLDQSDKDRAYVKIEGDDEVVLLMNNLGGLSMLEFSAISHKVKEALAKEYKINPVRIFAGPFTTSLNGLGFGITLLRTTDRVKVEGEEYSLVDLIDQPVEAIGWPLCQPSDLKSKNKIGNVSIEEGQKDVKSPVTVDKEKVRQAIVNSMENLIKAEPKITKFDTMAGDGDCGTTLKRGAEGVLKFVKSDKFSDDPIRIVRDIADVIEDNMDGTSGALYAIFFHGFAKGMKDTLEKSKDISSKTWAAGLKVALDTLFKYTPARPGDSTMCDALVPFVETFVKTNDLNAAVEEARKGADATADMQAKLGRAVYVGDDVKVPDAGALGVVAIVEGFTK
Method: (§1) The reaction mixture for measuring the substrate specificity of DHAK consists of 1.0 ml of 0.1M triethanolamine-HCl buffer (pH 7.5), 2.5 mM ATP, 4 mM MgSO4, 0.2 mM NADH, 1.3 mM phosphoenolpyruvate, 6 units of pyruvate kinase, 6 units of lactate dehydrogenase (Boehringer Mannheim GmbH), 0.01 ml of enzyme solution and each substrate (1.0 mM) as shown in Table 1. The reaction is started by adding enzyme solution and measured the decrease in the absorbance at 340 nm at 25° C. The above reaction is represented by the following equations: [drawing 4]

DHAK (II) [2] = assay: Substrate specificity of DHAK (II); format: biochemical, Schizosaccharomyces pombe IFO 0354; conditions: for Relative activity DHAK (II) (substrate): each substrate 1.0 mM, pH 7.5, 25° C., DHA = 100%; for Action of DHAK (II) on substrate (in words): summary of Table 1
Method: as §1

DHAK (I) [3] = biological target: T1, DHAK (I); assay: Specificity of DHAK (I) for phosphate donor; format: biochemical, Schizosaccharomyces pombe IFO 0354; conditions: for Relative activity DHAK (I) (phosphate donor): Adenosine 5'-triphosphate = 100%
Method: (§2) The reaction is started by adding enzyme solution, and the decrease of the absorbance at 340 nm is measured spectrophotometrically at 25° C. In the blank assay, DHA is excluded from the reaction mixture. One unit of the enzyme activity is defined as the amount of enzyme which catalyzes the formation of 1 μmol NAD^+ in one minute under the above conditions. The above reaction is represented by the following equations: [drawing 3]

DHAK (II) [4] = biological target: T2, DHAK (II) (Schizosaccharomyces pombe, UniProt O74215); assay: Specificity of DHAK (II) for phosphate donor; format: biochemical, Schizosaccharomyces pombe IFO 0354; conditions: for Relative activity DHAK (II) (phosphate donor): Adenosine 5'-triphosphate = 100%
T2 construct: DHAK (I) and DHAK (II) obtained from Schizosaccharomyces pombe IFO 0354; made in house; host or cells: Schizosaccharomyces pombe IFO 0354 (natural producer, not recombinant); cell extract, DEAE-Sepharose fraction at 0.16 M KCl, then Blue-Sepharose
T2 sequence (O74215 1-591): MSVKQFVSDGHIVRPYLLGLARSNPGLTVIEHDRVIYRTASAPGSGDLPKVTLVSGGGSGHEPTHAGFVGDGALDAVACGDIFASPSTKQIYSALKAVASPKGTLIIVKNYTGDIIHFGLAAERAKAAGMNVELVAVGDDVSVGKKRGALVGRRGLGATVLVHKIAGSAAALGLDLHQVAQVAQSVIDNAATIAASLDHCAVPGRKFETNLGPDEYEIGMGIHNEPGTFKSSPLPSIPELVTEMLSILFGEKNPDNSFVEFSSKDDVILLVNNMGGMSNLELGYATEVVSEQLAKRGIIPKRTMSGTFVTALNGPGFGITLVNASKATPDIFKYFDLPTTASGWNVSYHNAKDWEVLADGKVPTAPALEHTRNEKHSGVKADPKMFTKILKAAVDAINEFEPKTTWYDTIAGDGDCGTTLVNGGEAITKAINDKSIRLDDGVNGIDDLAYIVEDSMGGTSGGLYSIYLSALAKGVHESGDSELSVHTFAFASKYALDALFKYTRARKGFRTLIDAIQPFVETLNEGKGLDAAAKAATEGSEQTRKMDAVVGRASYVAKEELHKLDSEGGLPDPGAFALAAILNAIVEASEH
Method: as §2

DHAK (I) [5] = biological target: T1, DHAK (I); assay: Specificity of DHAK (I) for divalent metal cations; format: biochemical, Schizosaccharomyces pombe IFO 0354; conditions: for Relative activity DHAK (I) (metal cation): each divalent metal cation 4 mM, MgSO4 = 100%
Method: as §2
(§3) Each divalent metal cation (4 mM) was added to the reaction mixture and the activity of the enzyme was measured.

DHAK (II) [6] = biological target: T2, DHAK (II); assay: Specificity of DHAK (II) for divalent metal cations; format: biochemical, Schizosaccharomyces pombe IFO 0354; conditions: for Relative activity DHAK (II) (metal cation): each divalent metal cation 4 mM, MgSO4 = 100%
Method: as §2, §3

[7] = substrate: Nc1ncnc2c1ncn2[C@@H]1O[C@H](COP(=O)(O)OP(=O)(O)OP(=O)(O)O)[C@@H](O)[C@H]1O; assay: Km values of DHAK (II) for substrates and coenzyme; format: biochemical, Schizosaccharomyces pombe IFO 0354; conditions: other: pH 7.5, 25° C.
[8] = substrate: O=C(CO)CO; assay: Km values of DHAK (II) for substrates and coenzyme; format: biochemical, Schizosaccharomyces pombe IFO 0354; conditions: other: pH 7.5, 25° C.
[9] = substrate: O=CC(O)CO; assay: Km values of DHAK (II) for substrates and coenzyme; format: biochemical, Schizosaccharomyces pombe IFO 0354; conditions: other: pH 7.5, 25° C.
[10] = substrate: O=C(CO)CO; assay: purified protein, by the assay type; conditions: other: pH 7.5, 25° C.
[11] = substrate: Nc1ncnc2c1ncn2[C@@H]1O[C@H](COP(=O)(O)OP(=O)(O)OP(=O)(O)O)[C@@H](O)[C@H]1O; assay: Km values of DHAK (I) for substrates and coenzyme; format: biochemical, Schizosaccharomyces pombe IFO 0354; conditions: other: pH 7.5, 25° C.
[12] = substrate: O=CC(O)CO; assay: Km values of DHAK (I) for substrates and coenzyme; format: biochemical, Schizosaccharomyces pombe IFO 0354; conditions: other: pH 7.5, 25° C.
[13] = pH 7.5, read-out: Relative activity DHAK (I) (substrate)
[14] = pH 7.5; read-out: Relative activity DHAK (I) (substrate)
[15] = cation 4 mM, summary of Table 3
[16] = concentration in the reaction mixture

O=CC(O)CO (racemic) [DL-Glyceraldehyde]
activity at 1000 µM (DHAK (I) [1]; [13]): 27%
Action of DHAK (I) on substrate (in words) (DHAK (I) [1]; summary of Table 1): slightly
Relative activity DHAK (II) (substrate) (DHAK (II) [2]): 12%
Action of DHAK (II) on substrate (in words) (DHAK (II) [2]): slightly

O=C(O)C(O)CO (racemic) [DL-Glyceric acid]
activity at 1000 µM (DHAK (I) [1]; [14]): 0%
Relative activity DHAK (II) (substrate) (DHAK (II) [2]): 0%

CC(O)CO (centres unmarked) [1,2-Propanediol]
activity at 1000 µM (DHAK (I) [1]; [13]): 0%
Relative activity DHAK (II) (substrate) (DHAK (II) [2]): 0%

OCCCO [1,3-Propanediol]
activity at 1000 µM (DHAK (I) [1]; [13]): 0%
Relative activity DHAK (II) (substrate) (DHAK (II) [2]): 0%

CC(=O)C(C)O (centres unmarked) [Acetoin]
activity at 1000 µM (DHAK (I) [1]; [13]): 0%
Relative activity DHAK (II) (substrate) (DHAK (II) [2]): 0%

CC(=O)CO [Acetol]
activity at 1000 µM (DHAK (I) [1]; [13]): 0%
Relative activity DHAK (II) (substrate) (DHAK (II) [2]): 0%

Nc1ncnc2c1ncn2[C@@H]1O[C@H](COP(=O)(O)OP(=O)(O)OP(=O)(O)O)[C@@H](O)[C@H]1O [Adenosine 5'-triphosphate]
Relative activity DHAK (I) (phosphate donor) (DHAK (I) [3]): 100%
Phosphate donor ranking for DHAK (I) (in words) (DHAK (I) [3]; summary of Table 2): best phosphate donor
Relative activity DHAK (II) (phosphate donor) (DHAK (II) [4]): 100%
Phosphate donor ranking for DHAK (II) (in words) (DHAK (II) [4]; summary of Table 2): best phosphate donor

[Ca+2].[Cl-].[Cl-] [CaCl2]
Metal cation ranking for DHAK (I) (in words) (DHAK (I) [5]; [15]): maximum activity
Relative activity DHAK (I) (metal cation) (DHAK (I) [5]): 125%
Relative activity DHAK (II) (metal cation) (DHAK (II) [6]): 44%

[Cl-].[Cl-].[Co+2] [CoCl2]
Relative activity DHAK (I) (metal cation) (DHAK (I) [5]): 29%
Relative activity DHAK (II) (metal cation) (DHAK (II) [6]): 22%

Nc1ccn([C@@H]2O[C@H](COP(=O)(O)OP(=O)(O)OP(=O)(O)O)[C@@H](O)[C@H]2O)c(=O)n1 [Cytidine 5'-triphosphate]
Relative activity DHAK (I) (phosphate donor) (DHAK (I) [3]): 0%
Relative activity DHAK (II) (phosphate donor) (DHAK (II) [4]): 0%

O=C(CO)CO [DHA, dihydroxyacetone]
activity at 1000 µM (DHAK (I) [1]; [14]): 100%
Relative activity DHAK (II) (substrate) (DHAK (II) [2]): 100%
Action of DHAK (II) on substrate (in words) (DHAK (II) [2]): act on

O=P(O)(O)OCC(O)CO (centres unmarked) [Glycerol-3-phosphate]
activity at 1000 µM (DHAK (I) [1]; [14]): 0%
Relative activity DHAK (II) (substrate) (DHAK (II) [2]): 0%

OCC(O)CO [Glycerol]
activity at 1000 µM (DHAK (I) [1]; [14]): 0%
Relative activity DHAK (II) (substrate) (DHAK (II) [2]): 0%

Nc1nc2c(ncn2[C@@H]2O[C@H](COP(=O)(O)OP(=O)(O)OP(=O)(O)O)[C@@H](O)[C@H]2O)c(=O)[nH]1 [Guanosine 5'-triphosphate]
Relative activity DHAK (I) (phosphate donor) (DHAK (I) [3]): 0%
Relative activity DHAK (II) (phosphate donor) (DHAK (II) [4]): 0%

O=P(O)(O)OP(=O)(O)OP(=O)(O)OC[C@H]1O[C@@H](n2cnc3c(O)ncnc32)[C@H](O)[C@@H]1O [Inosine 5'-triphosphate]
Relative activity DHAK (I) (phosphate donor) (DHAK (I) [3]): 0%
Relative activity DHAK (II) (phosphate donor) (DHAK (II) [4]): 0%

O=S(=O)([O-])[O-].[Mg+2] [MgSO4]
Mg^2+ concentration giving sufficient activity of DHAK (I) (DHAK (I) [5]; [16]): ≥ 4 mM
Relative activity DHAK (I) (metal cation) (DHAK (I) [5]): 100%
Metal cation ranking for DHAK (II) (in words) (DHAK (II) [6]; [15]): maximum activity
Mg^2+ concentration giving sufficient activity of DHAK (II) (DHAK (II) [6]; [16]): ≥ 4 mM
Relative activity DHAK (II) (metal cation) (DHAK (II) [6]): 100%

[Cl][Mn][Cl] [MnCl2]
Relative activity DHAK (I) (metal cation) (DHAK (I) [5]): 15%
Relative activity DHAK (II) (metal cation) (DHAK (II) [6]): 9%

[Cl][Ni][Cl] [NiCl2]
Relative activity DHAK (I) (metal cation) (DHAK (I) [5]): 0%
Relative activity DHAK (II) (metal cation) (DHAK (II) [6]): 0%

O=c1ccn([C@@H]2O[C@H](COP(=O)(O)OP(=O)(O)OP(=O)(O)O)[C@@H](O)[C@H]2O)c(=O)[nH]1 [Uridine 5'-triphosphate]
Relative activity DHAK (I) (phosphate donor) (DHAK (I) [3]): 3.9%
Relative activity DHAK (II) (phosphate donor) (DHAK (II) [4]): 3.6%

B1: DHAK (II) (Schizosaccharomyces pombe 972h-) (protein)
chain: T2 sequence (O74215 1-591)
notes: DHAK (I) and DHAK (II) obtained from Schizosaccharomyces pombe IFO 0354; made in house; host or cells: Schizosaccharomyces pombe IFO 0354 (natural producer, not recombinant); cell extract, DEAE-Sepharose fraction at 0.16 M KCl, then Blue-Sepharose
Km [7]: 910 µM
Km [8]: 20 µM
Km [9]: 32 µM

B2: DHAK (I) (Schizosaccharomyces pombe 972h-) (protein)
chain: T1 sequence (O13902 1-580)
notes: DHAK (I) and DHAK (II) obtained from Schizosaccharomyces pombe IFO 0354; made in house; host or cells: Schizosaccharomyces pombe IFO 0354 (natural producer, not recombinant); cell extract, DEAE-Sepharose fraction at 0.12 M KCl, then Blue-Sepharose
Km [10]: 8.4 µM
Km [11]: 220 µM
Km [12]: 21 µM
